Measured values reported in article PMC6754136 (PLoS ONE, 2019).

Experiments:
[1] = target: purified recombinant human PDE5 (Homo sapiens, UniProt O76074); test: in vitro PDE5 inhibition assay measuring GMP production from cGMP (HPLC-UV-MS); assay type: biochemical; conditions: 1 nM PDE5 catalytic domain, 0.3 μM cGMP, 25 °C, 15 min; mean of at least three replicates ± SEM; read-out: IC50
Method: STRENDA guidelines were considered in the description of the following enzyme activity assays. PDE5 inhibition and kinetics assays were carried out according to the method of Kincaid and Manganiello [31] and Dell’Agli et al. 1 nM recombinant human PDE5 (catalytic domain consisting of amino acids 537–875, Abcam, ab125581) was pre-incubated with PDE5 inhibitors (synthesized in-house as described above or purchased from Selleck Chemicals) in 40 mM tris-hydrochloric acid, pH 7.8, containing 10 mM MgCl2. […]. PDE5 inhibitors were added to each reaction using a Hewlett-Packard D300 Digital Dispenser (Tecan). Maximum DMSO concentration was 0.1% of the final reaction volume for all samples. After incubation at 25 °C for 5 minutes to allow interaction between PDE5 and drugs, the reaction was started with the addition of 0.3 μM cGMP (Enzo Life Sciences, Inc.) and incubated at 25 °C for 15 minutes. The final reaction volume was 100 μL. Reactions were stopped with the addition of 100 μL of 0.1 M HCl and neutralized by adding 0.1 M NaOH until the pH was 7. […] The amount of GMP produced was measured by HPLC-UV-MS as described in the general procedures. Reaction mixture components were separated with a ramp gradient of solvent A and B run at a flow rate of 0.5 mL/min as follows: 0–4 minutes 0% B, 4–7 minutes 0–95% B, 7–8 minutes 95% B, 8–11.1 minutes 0% B. GMP was measured using selected reaction monitoring in positive mode for a centroid center mass of 152.
A calibration curve using known concentrations of GMP was generated using the HPLC-UV-MS method described above to quantify the absolute amount of GMP in each reaction (S13 Fig). The linear range was from 5.9 nM to 3 μM. The limit of detection (LOD), defined as the lowest concentration producing a detectable peak above background, was 0.1 nM. The lower limit of quantification (LLOQ), defined as the lowest concentration used to generate a standard curve with r^2 > 0.95, was 5.9 nM. The upper limit of quantification (ULOQ), defined as the highest concentration used to generate a standard curve with r^2 > 0.95, was 3 μM. A GMP calibration curve was generated with each individual run of the HPLC-UV-MS.
To measure the IC50 as a result of treatment with each icariin analog, the in vitro inhibition enzyme assay as described above was performed, and GMP levels were normalized to no-drug controls and multiplied by 100 to obtain the percent PDE5 activity. IC50 mean ± SEM values were determined by nonlinear-regression fitting of the percent PDE5 activity data using the [inhibitor] vs response–variable slope (four parameters) equation in Prism (version 7.0a and version 8). Top value was constrained to 100, all other parameters were unconstrained. To obtain the dose-response curves for visual confirmation of the best-fit line, we executed a nonlinear regression fitting using the log(inhibitor) vs. response—variable slope (four parameters) equation in Prism. […] AICc analysis (built into Prism) was used to confirm the best-fitting inhibition model. […] Inhibition models were also compared via visual inspection of the fit of the calculated curves on the Michaelis-Menten plots.

[2] = mitochondrial viability assay with resazurin; assay type: cell-based, human; conditions: human, four cell lines, 0.01–10 μM, even at the highest concentration tested (10 μM)
Method: The human cell lines SH-SY5Y (SY5Y, ATCC CRL-2266), SK-MEL-5 (SKMEL-5, ATCC HTB-70), and NCI-H187 (H187, ATCC CRL-5804) were cultured in RPMI medium supplemented with 10% FBS and no antibiotics. These three cell lines were generously provided by the laboratory of Susan Lindquist via Luke Whitesell (currently at the University of Toronto, Toronto, ON, Canada). BJ-hTERT (described in [27], generously provided by Robert Weinberg, Whitehead Institute, Cambridge MA, USA) was cultured in 4:1 DMEM:M199 medium supplemented with 15% FBS and no antibiotics. All cell lines were grown and assayed at 37 °C, 5% CO2. All cell lines were screened for mycoplasma contamination by PCR (Mycoscope Detection Kit, Fisher Scientific) before use in assays.
For viability assays, cells were plated in black, clear bottom 384-well tissue culture-treated plates (Corning) and incubated overnight in the media described above but supplemented with 50 U/mL penicillin-streptomycin antibiotic (Life Technologies). Then, DMSO (no drug controls) and PDE5 inhibitors (0.01–10 μM; synthesized as described above or purchased from Selleck Chemicals) were added using a Hewlett-Packard D300 Digital Dispenser (Tecan) and incubated for 3 days. Maximum DMSO concentration was normalized to 0.1% of the total well volume for all wells. Resazurin (R & D Systems) was diluted 1:20 into each well and incubated for up to 4 hours. Fluorescence was read in a Tecan plate reader (excitation = 570 nm, emission = 585 nm). Wells treated with PDE5 inhibitors were normalized against control wells treated with DMSO to measure percent mitochondrial viability (100 = no effect on mitochondrial viability).

[3] = tested on: BJ-hTERT cells; test: cellular GMP levels after inhibitor treatment; assay type: cell-based, human; conditions: 20 μM inhibitor, 1 hour; mean ± SEM; p<0.001
Method: For assaying PDE5 inhibitor effects on GMP levels in a cell line, BJ-hTERT cells were plated in 6-well plates (Corning) in the media described above. When cells were 80% confluent, fresh, pre-warmed media with DMSO (untreated controls) or 20 μM sildenafil, 3, or 7 was added and incubated for 1 hour. Maximum DMSO concentration in all samples was 0.2% of the total well volume. Cells were washed once with cold 0.9% NaCl. 800 μL of 80:20 methanol:water spiked with 500 nM isotopically labeled amino acids as internal standards was added while cells were on dry ice. Cells were detached with a cell scraper. Extracts were vortexed for 10 minutes and centrifuged at maximum speed at 4 °C to remove debris. Extracts were dried down in a vacuum dryer and stored at -80 °C. An additional sample was reserved for visual inspection of cell health by confocal light microscopy and for cell counting with a hemocytometer. Three independent assays were conducted in total, with 1–2 replicates per assay. To analyze GMP levels, samples were reconstituted in 50 μL LC-MS grade water and analyzed by HPLC-UV-MS as described in the general procedures and for enzyme inhibition and kinetics assays. The amino acid standards were analyzed in full scan positive mode with mass windows m/z 50–800. GMP peak areas were normalized to the peak area of the internal standard ^13C4, ^15N-threonine or ^13C6, ^15N3-histidine to account for variations in extraction or resuspension volume. The peak areas were then normalized to the average GMP peak area in undrugged controls and multiplied by 100 to obtain the percent GMP.

COc1ccc(-c2oc3c(CC=C(C)C)c(O)cc(O)c3c(=O)c2OCCCO)cc1 [Compound 7, 3-O-(3-Hydroxypropyl)-Icaritin]
IC50 [1]: 140 ± 60 nM
viability at 3 days, 10 μM [2]: > 70%
cellular GMP concentration, % of the GMP concentration in untreated control cells [3]: 13 ± 2%
